A value given as a limit tells only on which side of the number the result lay.

By EC50 is commonly meant the concentration at which the effect is half-maximal.

For assay [1], the target named is EGFR (Homo sapiens, UniProt P00533). Nature of the assay: EGFR signaling (pEGFR Tyr1068/total EGFR MSD) in A431 cells. The format is cell-based. More on the design: endogenous in cells; host or cells: A431, N87. As to conditions: for EC50: A431 cells, read-out: A431 pEGFR EC50; for Selectivity A431 EC50/BT474 EC50: ratio A431 pEGFR EC50 to BT474 pHER2 EC50; for Selectivity A431 EC50/HEKYVMA EC50: ratio A431 pEGFR EC50 to HEK YVMA pHER2 EC50. An outline of the steps: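 Serum-starved A431 cells were pretreated 1.5 h in 1% FBS with compound (0.005–10 μM, 0.1% DMSO), then stimulated with 100 ng/mL human EGF for 10 min. Lysate pEGFR Tyr1068 was measured by MSD and normalized to total EGFR as % DMSO control; EC50 from variable-slope sigmoidal fit.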
EGFR, sequence (P00533 25-1210): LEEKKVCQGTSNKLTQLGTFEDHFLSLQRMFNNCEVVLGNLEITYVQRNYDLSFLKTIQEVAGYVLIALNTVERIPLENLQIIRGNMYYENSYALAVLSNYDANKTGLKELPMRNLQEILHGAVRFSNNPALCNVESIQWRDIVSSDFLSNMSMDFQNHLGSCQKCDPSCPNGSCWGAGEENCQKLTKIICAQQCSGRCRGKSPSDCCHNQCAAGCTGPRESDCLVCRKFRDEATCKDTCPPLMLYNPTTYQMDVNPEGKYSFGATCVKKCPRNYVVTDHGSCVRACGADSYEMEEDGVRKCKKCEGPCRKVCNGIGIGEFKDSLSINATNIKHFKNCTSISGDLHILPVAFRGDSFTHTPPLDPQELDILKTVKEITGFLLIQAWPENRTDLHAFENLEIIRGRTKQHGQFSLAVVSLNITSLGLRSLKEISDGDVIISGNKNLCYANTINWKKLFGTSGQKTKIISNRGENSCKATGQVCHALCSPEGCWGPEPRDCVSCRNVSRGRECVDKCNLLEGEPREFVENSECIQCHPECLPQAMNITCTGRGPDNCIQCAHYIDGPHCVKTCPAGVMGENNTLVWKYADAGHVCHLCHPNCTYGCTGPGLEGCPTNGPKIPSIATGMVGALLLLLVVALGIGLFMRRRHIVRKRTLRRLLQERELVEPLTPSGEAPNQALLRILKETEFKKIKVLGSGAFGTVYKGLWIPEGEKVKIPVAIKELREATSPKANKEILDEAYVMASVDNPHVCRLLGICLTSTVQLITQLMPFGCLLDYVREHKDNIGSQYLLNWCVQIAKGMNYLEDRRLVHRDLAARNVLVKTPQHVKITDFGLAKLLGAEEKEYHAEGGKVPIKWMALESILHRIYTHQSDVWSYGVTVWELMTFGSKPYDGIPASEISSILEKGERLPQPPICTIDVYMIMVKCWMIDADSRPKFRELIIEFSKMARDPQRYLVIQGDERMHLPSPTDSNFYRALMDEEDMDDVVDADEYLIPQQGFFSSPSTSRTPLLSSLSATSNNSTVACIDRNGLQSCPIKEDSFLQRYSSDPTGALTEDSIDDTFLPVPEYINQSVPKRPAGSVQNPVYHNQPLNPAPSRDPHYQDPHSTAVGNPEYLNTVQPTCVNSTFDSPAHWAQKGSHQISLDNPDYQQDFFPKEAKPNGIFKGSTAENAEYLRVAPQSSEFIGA

The target of assay [2] is T1, HER2 wildtype (WT) protein (Homo sapiens, UniProt P04626).
T1 construct: BT474 and N87 cell lines which endogenously overexpress the HER2 wildtype (WT) protein; endogenous in cells; host or cells: BT474, N87
T1 sequence (P04626 23-1255): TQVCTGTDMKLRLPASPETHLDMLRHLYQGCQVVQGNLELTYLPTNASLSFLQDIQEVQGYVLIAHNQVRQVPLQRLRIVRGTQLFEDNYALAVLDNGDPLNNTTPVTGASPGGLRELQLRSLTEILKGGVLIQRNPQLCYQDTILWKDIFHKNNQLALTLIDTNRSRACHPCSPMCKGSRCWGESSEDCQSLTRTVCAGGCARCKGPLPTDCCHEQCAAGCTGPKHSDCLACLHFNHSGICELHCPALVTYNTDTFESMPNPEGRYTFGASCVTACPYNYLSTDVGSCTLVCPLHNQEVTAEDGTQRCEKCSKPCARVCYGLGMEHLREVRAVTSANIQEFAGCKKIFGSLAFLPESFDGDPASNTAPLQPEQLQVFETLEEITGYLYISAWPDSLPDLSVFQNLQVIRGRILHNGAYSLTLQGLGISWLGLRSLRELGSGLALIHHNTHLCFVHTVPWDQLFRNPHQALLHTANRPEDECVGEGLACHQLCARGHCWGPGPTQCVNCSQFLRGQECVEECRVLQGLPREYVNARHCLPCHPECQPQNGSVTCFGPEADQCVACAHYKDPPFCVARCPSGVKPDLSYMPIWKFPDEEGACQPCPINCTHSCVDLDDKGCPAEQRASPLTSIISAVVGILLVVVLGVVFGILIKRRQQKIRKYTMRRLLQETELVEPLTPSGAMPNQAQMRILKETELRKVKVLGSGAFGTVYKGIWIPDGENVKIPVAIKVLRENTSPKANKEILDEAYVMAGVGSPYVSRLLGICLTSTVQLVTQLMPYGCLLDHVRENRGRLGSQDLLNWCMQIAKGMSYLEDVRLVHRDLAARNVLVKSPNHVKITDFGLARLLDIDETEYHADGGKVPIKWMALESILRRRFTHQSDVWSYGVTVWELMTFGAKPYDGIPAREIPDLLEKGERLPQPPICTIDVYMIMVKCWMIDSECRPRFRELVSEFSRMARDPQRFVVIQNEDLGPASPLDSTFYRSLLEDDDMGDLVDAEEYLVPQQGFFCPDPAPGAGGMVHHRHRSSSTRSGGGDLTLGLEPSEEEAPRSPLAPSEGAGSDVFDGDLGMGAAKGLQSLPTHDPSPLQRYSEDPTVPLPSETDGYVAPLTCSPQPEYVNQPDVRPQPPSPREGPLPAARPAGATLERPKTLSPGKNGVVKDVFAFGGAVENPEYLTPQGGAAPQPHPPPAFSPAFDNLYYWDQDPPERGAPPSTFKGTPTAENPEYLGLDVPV
The assay can be described thus: HER2 signaling (pHER2 Tyr1248/total HER2 MSD) in BT474 cells. The format is cell-based. As to conditions: 1.5 hr compound, 1% FBS. The method in brief: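 BT474, N87 (HER2 WT) and NCI-H1781 (HER2 G776delinsVC) cells were treated for 1.5 h at 37° C in 1% FBS medium with compound at 0.0005–1.1 μM. pHER2 Tyr1248 was measured by MSD on whole-cell lysates and normalized to total HER2 as % DMSO. EC50 came from a variable-slope sigmoidal fit.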

For the compound `COc1ccc(Oc2ccc(Nc3ncnc4sc5c(c34)CN(C(=O)/C=C/CN(C)C)C5)cc2C)cn1` [Compound 128, (E)-4-(dimethylamino)-1-(4-((4-((6-methoxypyridin-3-yl)oxy)-3-methylphenyl)amino)-5,7-dihydro-6H-pyrrolo[3′,4′:4,5]thieno[2,3-d]pyrimidin-6-yl)but-2-en-1-one], in assay [1], the EC50 is 1000 to 10000 nM; the “Selectivity A431 EC50/BT474 EC50” value is “B (B: ≥ 20 and < 100)”; the “Selectivity A431 EC50/HEKYVMA EC50” value was “B (B: ≥ 20 and < 100)”. The compound also came in with an EC50 in assay [2] of under 100 nM.

Consider `CCN(CC)C/C=C/C(=O)N1CCc2c(sc3ncnc(Nc4ccc(Oc5ccc(C)nc5)c(C)c4)c23)C1` [Compound 131], for which, in assay [1], the EC50 is under 100 nM; the “Selectivity A431 EC50/BT474 EC50” value is “C (C: ≥ 10 and < 20)”; the “Selectivity A431 EC50/HEKYVMA EC50” value was “D (D: ≥ 5 and < 10)”. This compound also had an EC50 in assay [2] of under 100 nM.

`Cc1ccc(Oc2ccc(Nc3ncnc4sc5c(c34)CCN(C(=O)/C=C/CN3CCO[C@@H](CO)C3)C5)cc2C)cn1` [Compound 144]: in assay [1], the EC50 is 100 to 1000 nM; the “Selectivity A431 EC50/BT474 EC50” value was “B (B: ≥ 20 and < 100)”; the “Selectivity A431 EC50/HEKYVMA EC50” value was “D (D: ≥ 5 and < 10)”. Besides, in assay [2], the half-maximal effective concentration (EC50) is under 100 nM.

Regarding `Cc1ccc(Oc2ccc(Nc3ncnc4sc5c(c34)CCN(C(=O)/C=C/CN3CC(CO)(CO)C3)C5)cc2C)cn1` [Compound 134], in assay [1], the EC50 lay in the range of 1000 to 10000 nM; the “Selectivity A431 EC50/BT474 EC50” value is “B (B: ≥ 20 and < 100)”; the “Selectivity A431 EC50/HEKYVMA EC50” value is “B (B: ≥ 20 and < 100)”. The same compound displayed an EC50 in assay [2] of 100 to 350 nM.

For `Cc1cc(Nc2ncnc3sc4c(c23)CCN(C(=O)/C=C/CN(C)C)C4)ccc1Oc1ccn2ncnc2c1` [Compound 138, (E)-1-(4-((4-([1,2,4]triazolo[1,5-a]pyridin-7-yloxy)-3-methylphenyl)amino)-5,8-dihydropyrido[4′,3′:4,5]thieno[2,3-d]pyrimidin-7(6H)-yl)-4-(dimethylamino)but-2-en-1-one], in assay [1], the EC50 is 100 to 1000 nM; the “Selectivity A431 EC50/BT474 EC50” value is “B (B: ≥ 20 and < 100)”; the “Selectivity A431 EC50/HEKYVMA EC50” value was “A (A: ≥100)”. In assay [2], this compound yielded an EC50 of under 100 nM.

In the case of `Cc1ccc(Oc2ccc(Nc3ncnc4sc5c(c34)CN(C(=O)/C=C/CN(C)C)C5)cc2Cl)cn1` [Compound 129, (E)-1-(4-((3-Chloro-4-((6-methylpyridin-3-yl)oxy)phenyl)amino)-5H-pyrrolo[3′,4′:4,5]thieno[2,3-d]pyrimidin-6(7H)-yl)-4-(dimethylamino)but-2-en-1-one], in assay [1], the EC50 lay in the range of 100 to 1000 nM; the “Selectivity A431 EC50/BT474 EC50” value was “B (B: ≥ 20 and < 100)”; the “Selectivity A431 EC50/HEKYVMA EC50” value was “B (B: ≥ 20 and < 100)”. In addition, in assay [2], the EC50 is under 100 nM.

Take `Cc1ccc(Oc2ccc(Nc3ncnc4sc5c(c34)CCN(C(=O)/C=C/CN3CCCC(c4nccs4)C3)C5)cc2C)cn1` (stereo not shown) [Compound 113]: in assay [1], the EC50 lay in the range of 100 to 1000 nM; the “Selectivity A431 EC50/BT474 EC50” value was “B (B: ≥ 20 and < 100)”; the “Selectivity A431 EC50/HEKYVMA EC50” value was “C (C: ≥ 10 and < 20)”. In assay [2], this compound gave an EC50 of under 100 nM.

With `Cc1ccc(Oc2ccc(Nc3ncnc4sc5c(c34)CCN(C(=O)/C=C/CN3CCOCC3)C5)cc2C)cn1` [Compound 17, (E)-1-(4-((3-Methyl-4-((6-methylpyridin-3-yl)oxy)phenyl)amino)-5,6-dihydropyrido[4′,3′:4,5]thieno[2,3-d]pyrimidin-7(8H)-yl)-4-morpholinobut-2-en-1-one], in assay [1], the EC50 lay in the range of 100 to 1000 nM; the “Selectivity A431 EC50/BT474 EC50” value is “C (C: ≥ 10 and < 20)”; the “Selectivity A431 EC50/HEKYVMA EC50” value is “A (A: ≥100)”. Besides, the EC50 in assay [2] was under 100 nM.

In the case of `Cc1cn2ccc(Oc3ccc(Nc4ncnc5sc6c(c45)CCN(C(=O)/C=C/CN(C)C)C6)cc3C)cc2n1` [Compound 110, (E)-4-(dimethylamino)-1-(4-((3-methyl-4-((2-methylimidazo[1,2-a]pyridin-7-yl)oxy)phenyl)amino)-5,8-dihydropyrido[4′,3′:4,5]thieno[2,3-d]pyrimidin-7(6H)-yl)but-2-en-1-one], in assay [1], the EC50 was 1000 to 10000 nM; the “Selectivity A431 EC50/BT474 EC50” value was “B (B: ≥ 20 and < 100)”; the “Selectivity A431 EC50/HEKYVMA EC50” value was “C (C: ≥ 10 and < 20)”. The compound also gave a concentration giving a half-maximal response (EC50) in assay [2] of under 100 nM.

`COc1ccc(Oc2ccc(Nc3ncnc4sc5c(c34)CCN(C(=O)/C=C/CN3CC[C@@H](CO)C3)C5)cc2C)cn1` [Compound 143]: in assay [1], the EC50 was under 100 nM; the “Selectivity A431 EC50/BT474 EC50” value was “C (C: ≥ 10 and < 20)”; the “Selectivity A431 EC50/HEKYVMA EC50” value was “E (E: >1 and < 5)”. In addition, the EC50 in assay [2] is under 100 nM.

Consider `Cc1ccc(Oc2ccc(Nc3ncnc4sc5c(c34)CN(C(=O)/C=C/CN(C)C)C5C)cc2C)cn1` (stereo not shown) [Compound 153, (E)-4-(dimethylamino)-1-(7-methyl-4-((3-methyl-4-((6-methylpyridin-3-yl)oxy)phenyl)amino)-5,7-dihydro-6H-pyrrolo[3′,4′:4,5]thieno[2,3-d]pyrimidin-6-yl)but-2-en-1-one], for which, in assay [1], the EC50 lay in the range of 100 to 1000 nM; the “Selectivity A431 EC50/BT474 EC50” value is “B (B: ≥ 20 and < 100)”; the “Selectivity A431 EC50/HEKYVMA EC50” value is “C (C: ≥ 10 and < 20)”. In assay [2], this compound yielded an EC50 of under 100 nM.

As for `Cc1ccc(Oc2ccc(Nc3ncnc4sc5c(c34)CCN(C(=O)/C=C/CN3CCC(CO)(CO)CC3)C5)cc2C)cn1` [Compound 135], in assay [1], the EC50 fell in the range of 1000 to 10000 nM; the “Selectivity A431 EC50/BT474 EC50” value was “B (B: ≥ 20 and < 100)”; the “Selectivity A431 EC50/HEKYVMA EC50” value was “D (D: ≥ 5 and < 10)”. Besides, the concentration giving a half-maximal response (EC50) in assay [2] was under 100 nM.

As to `Cc1ccc(Oc2ccc(Nc3ncnc4sc5c(c34)C[C@@H](C)N(C(=O)/C=C/CN(C)C)[C@@H]5C)cc2C)cn1` (racemic) [Compound 165, (E)-1-(6,8-trans-dimethyl-4-((3-methyl-4-((6-methylpyridin-3-yl)oxy)phenyl)amino)-5,8-dihydropyrido[4′,3′:4,5]thieno[2,3-d]pyrimidin-7(6H)-yl)-4-(dimethylamino)but-2-en-1-one], in assay [1], the EC50 was 1000 to 10000 nM; the “Selectivity A431 EC50/BT474 EC50” value was “B (B: ≥ 20 and < 100)”; the “Selectivity A431 EC50/HEKYVMA EC50” value is “D (D: ≥ 5 and < 10)”. Also, the EC50 in assay [2] is under 100 nM.

Regarding `Cc1ccc(Oc2ccc(Nc3ncnc4sc5c(c34)C(C)CN(C(=O)/C=C/CN(C)C)C5)cc2Cl)cn1` (stereo not shown) [Compound 171, (E)-1-(4-((3-Chloro-4-((6-methylpyridin-3-yl)oxy)phenyl)amino)-5-methyl-5,6-dihydropyrido[4′,3′:4,5]thieno[2,3-d]pyrimidin-7(8H)-yl)-4-(dimethylamino)but-2-en-1-one], in assay [1], the EC50 was under 100 nM; the “Selectivity A431 EC50/BT474 EC50” value was “A (A: ≥100)”; the “Selectivity A431 EC50/HEKYVMA EC50” value was “E (E: >1 and < 5)”. In assay [2], this compound returned an EC50 of under 100 nM.

For `Cc1ccc(Oc2ccc(Nc3ncnc4sc5c(c34)CCN(C(=O)/C=C/CN3CC4CCC(C3)O4)C5)cc2C)cn1` [Compound 13], in assay [1], the EC50 was in the range of 100 to 1000 nM; the “Selectivity A431 EC50/BT474 EC50” value was “C (C: ≥ 10 and < 20)”; the “Selectivity A431 EC50/HEKYVMA EC50” value is “C (C: ≥ 10 and < 20)”. For the same compound, the EC50 in assay [2] is under 100 nM.

Turning to `Cc1cc(Nc2ncnc3sc4c(c23)CCN(C(=O)/C=C/CN(C)C)C4)ccc1Oc1ccc(N(C)C)nc1` [Compound 158, (E)-4-(dimethylamino)-1-(4-((4-((6-(dimethylamino)pyridin-3-yl)oxy)-3-methylphenyl)amino)-5,8-dihydropyrido[4′,3′:4,5]thieno[2,3-d]pyrimidin-7(6H)-yl)but-2-en-1-one], in assay [1], the EC50 lay within 100 to 1000 nM; the “Selectivity A431 EC50/BT474 EC50” value was “B (B: ≥ 20 and < 100)”; the “Selectivity A431 EC50/HEKYVMA EC50” value was “B (B: ≥ 20 and < 100)”. In addition, the EC50 in assay [2] was under 100 nM.

In the case of `Cc1nc2cc(Oc3ccc(Nc4ncnc5sc6c(c45)CCN(C(=O)/C=C/CN(C)C)C6)cc3C)ccn2n1` [Compound 127, (E)-4-(dimethylamino)-1-(4-((3-methyl-4-((2-methyl-[1,2,4]triazolo[1,5-a]pyridin-7-yl)oxy)phenyl)amino)-5,6-dihydropyrido[4′,3′:4,5]thieno[2,3-d]pyrimidin-7(8H)-yl)but-2-en-1-one], in assay [1], the EC50 lay in the range of 1000 to 10000 nM; the “Selectivity A431 EC50/BT474 EC50” value was “A (A: ≥100)”; the “Selectivity A431 EC50/HEKYVMA EC50” value is “B (B: ≥ 20 and < 100)”. In assay [2], the EC50 was under 100 nM.

Regarding `COc1cc(Nc2ncnc3sc4c(c23)CCN(C(=O)/C=C/CN(C)C)C4)ccc1Oc1ccccc1` [Compound 7, (E)-4-(dimethylamino)-1-(4-((3-methoxy-4-phenoxyphenyl)amino)-5,8-dihydropyrido[4′,3′:4,5]thieno[2,3-d]pyrimidin-7(6H)-yl)but-2-en-1-one], in assay [1], the 50% effective concentration (EC50) was under 100 nM; the “Selectivity A431 EC50/BT474 EC50” value was “D (D: ≥ 5 and < 10)”; the “Selectivity A431 EC50/HEKYVMA EC50” value was “F (F: < 1)”. This compound came in with an EC50 in assay [2] of under 100 nM.

Consider `Cc1cc(Nc2ncnc3sc4c(c23)CCN(C(=O)/C=C/CN2CCOCC2)C4)ccc1Oc1ccc2ncnn2c1` [Compound 12], for which, in assay [1], the EC50 was 1000 to 10000 nM; the “Selectivity A431 EC50/BT474 EC50” value was “A (A: ≥100)”; the “Selectivity A431 EC50/HEKYVMA EC50” value is “B (B: ≥ 20 and < 100)”. The same compound had a half-maximal effective concentration (EC50) in assay [2] of under 100 nM.

For the origin of these results see patent US20240391931A1 (Bristol-Myers Squibb Company, priority 2021, published 2024).
